From patent US20120122776A1, “DPP-IV INHIBITORS FOR TREATMENT OF DIABETES IN PEDIATRIC PATIENTS” (BOEHRINGER INGELHEIM INTERNATIONAL GMBH, priority 2009, published 2012)

Key:
[1] = Safety (adverse events, hypoglycaemia) in the 12-week add-on to metformin study; type: in vivo, human; details: 12 weeks
Description: In total, 106 patients (43.1%) experienced adverse events (AEs) with similar incidences across all treatments. Most frequently reported episodes were nasopharyngitis (7.5%), diarrhoea (3.3%), and nausea (3.0%). […] Ten patients (3.7%) experienced serious AEs but none of these events were considered drug-related.
The addition of BI 1356 to MET in patients with T2DM inadequately controlled on MET alone achieved clinically relevant and statistically significant reductions in HbA1c.

clinical = details: human; for Cmax / Tmax / AUC(0-t): plasma; for CL renal: urine
[2] = Pharmacokinetics of BI 1356, multiple oral doses once daily for 12 days in adult patients with type 2 diabetes; details: for fe0-24: fraction excreted in urine; for AUCT,ss / T1/2,ss / feT,ss / tmax,ss* / Cmax: steady state (Day 12); for tmax,ss*: median; for Cmax: read-out: Cmax,ss
[3] = 2 h postprandial blood glucose excursions, multiple oral dose study in adult patients with type 2 diabetes; type: in vivo, human; details: already on Day 1; in doses 2.5 mg
Description: […]. […] […].

[4] = Plasma concentration after single oral administration in the thorough QT study; type: in vivo, human; details: for maximum gMean concentration after single oral administration: healthy subjects
Description: Forty-four subjects were enrolled, 26 (59.1%) of whom were male. The mean age was 36.4 years (range 22 to 48 years). The maximum gMean concentration after single oral administration was 7.05 nM (28.5% gCV) for 5 mg BI 1356, and 267 nM (66.6% gCV) for 100 mg BI 1356.

[5] = Safety and tolerability in people with type 2 diabetes
[6] = 12-week randomized, double-blind add-on to metformin study in inadequately controlled adult type 2 diabetic patients: HbA1c and FPG; details: for placebo corrected mean reduction in HbA1c: 12 weeks
Description: Effects were compared to add-on of placebo (PBO) or of open label glimepiride (GLIM; 1 to 3 mg qd) in a 12-week randomized, double-blind study.
The primary endpoint was change from baseline in HbA1c, adjusted for prior antidiabetic medication.

[7] = gMean, 1 mg once daily oral for 12 days
[8] = gMean, 2.5 mg once daily oral for 12 days
[9] = gMean, 5 mg once daily oral for 12 days
[10] = gMean, 10 mg once daily oral for 12 days

## CC#CCn1c(N2CCC[C@@H](N)C2)nc2c1c(=O)n(Cc1nc(C)c3ccccc3n1)c(=O)n2C [BI 1356]
[1]; add-on to metformin
  drug-related hypoglycaemia: did not occur
  incidence of AEs versus PBO: comparable
[1]; BI 1356 1, 5, and 10 mg and MET
  tolerability of combination treatment with MET: well tolerated
clinical; po, 1 mg
  Cmax: 3.13 nM
  Tmax: 1.5 h
clinical; po, 2.5 mg
  AUC(0-t): 0.0853 µM·h
  Cmax: 5.25 nM
  Tmax: 2 h
clinical; po, 5 mg
  AUC(0-t): 0.118 µM·h
  Cmax: 8.32 nM
  Tmax: 1.75 h
clinical; po, 10 mg
  AUC(0-t): 0.161 µM·h
  Cmax: 9.69 nM
  Tmax: 2 h
clinical; oral, 5 mg
  CL renal: ~70 mL/min
clinical; po
  CL renal: 14 to 70 mL/min
[2]; doses above 1 mg, once daily for 12 days
  mean accumulation ratio RA,AUC: ≤ 1.4
[2]; [7]
  AUC0-24: 40.2 nmol·h/L
  Accumulation t1/2,: 23.9 h
[2]; [8]
  Accumulation t1/2,: 12.5 h
  fe0-24: 0.139%
[2]; [9]
  Accumulation t1/2,: 11.4 h
  fe0-24: 0.453%
[2]; [10]
  Accumulation t1/2,: 8.59 h
  fe0-24: 0.919%
[2]; gMean, 1 mg once daily oral
  AUCT,ss: 81.7 nmol·h/L
  T1/2,ss: 121 h
  feT,ss: 3.34%
  Cmax: 4.53 nM
[2]; gMean, 2.5 mg once daily oral
  AUCT,ss: 117 nmol·h/L
  T1/2,ss: 113 h
  feT,ss: 3.06%
  Cmax: 6.58 nM
[2]; gMean, 5 mg once daily oral
  AUCT,ss: 158 nmol·h/L
  T1/2,ss: 131 h
  feT,ss: 6.27%
  Cmax: 11.1 nM
[2]; gMean, 10 mg once daily oral
  AUCT,ss: 190 nmol·h/L
  T1/2,ss: 130 h
  feT,ss: 3.22%
  Cmax: 13.6 nM
[2]; 1 mg once daily oral
  tmax,ss*: 1.48 h
[2]; 2.5 mg once daily oral
  tmax,ss*: 1.42 h
[2]; 5 mg once daily oral
  tmax,ss*: 1.53 h
[2]; 10 mg once daily oral
  tmax,ss*: 1.34 h
In vivo
  excretion form and pathway: primarily excreted unchanged via the bile
Therapeutic oral dose levels
  excretion via the kidney: < 7 % of the administered oral dose
  main excretion organ: mainly excreted via the liver
[3]
  decrease in 2 h postprandial blood glucose excursions: > 80%
[4]; 5 mg single oral dose
  maximum gMean concentration after single oral administration: 7.05 nM
[4]; 100 mg single oral dose
  maximum gMean concentration after single oral administration: 267 nM
[4]; single dose
  maximum plasma concentration of supratherapeutic dose (100 mg) relative to therapeutic dose of 5 mg: about 38 fold
[5]
  safety and tolerability: placebo-like safety and tolerability
[6]; 1 mg qd add-on to metformin
  reduction in FPG from baseline to Week 12: -19 mg/dL
[6]; 1 mg qd add-on to metformin, n=65
  placebo corrected mean reduction in HbA1c: −0.39%
[6]; 5 mg qd add-on to metformin
  reduction in FPG from baseline to Week 12: -35 mg/dL
[6]; 5 mg qd add-on to metformin, n=66
  placebo corrected mean reduction in HbA1c: −0.75%
[6]; 10 mg qd add-on to metformin
  reduction in FPG from baseline to Week 12: -30 mg/dL
[6]; 10 mg qd add-on to metformin, n=66
  placebo corrected mean reduction in HbA1c: −0.73%

## CCC1=C(C)CN(C(=O)NCCc2ccc(S(=O)(=O)NC(=O)N[C@H]3CC[C@H](C)CC3)cc2)C1=O [GLIM, glimepiride, reference compound]
[1]; add-on to metformin
  drug-related hypoglycaemia: 3 patients
[6]; open label, 1 to 3 mg qd add-on to metformin, n=64
  mean PBO corrected reduction in HbA1c at Week 12: −0.90%
